# According to patent publication US6642392B1 (priority 1997, dated 2003):
# Read-outs that look alike come from different tables or passages of the source.
# How the values were obtained:
# Type in all cases: in vivo
# Pyricularia oryzae = conditions: for Test C disease control rating: rice blast; for Test C disease control rating (100 = 100% disease control, 0 = no disease control): rice seedlings sprayed to run-off, inoculated the following day, rating relative to controls, unmarked compounds (standard test rate)
# [1] = system: Eiysiphe graminis f. sp. tritici; assay: Test A: wheat powdery mildew, preventive spray on wheat seedlings; conditions: for Test A disease control rating: wheat powdery mildew; for Test A disease control rating (100 = 100% disease control, 0 = no disease control): wheat seedlings sprayed to run-off, inoculated the following day, rating relative to controls, unmarked compounds (standard test rate)
# Procedure, shortened: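 Preventive test: seedlings inoculated with powdery mildew spores one day after run-off spraying of a suspension. Ratings after 7 days in a 20° C growth chamber express percent disease control versus controls.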
# Phytophthora infestans = conditions: for Test D disease control rating: tomato late blight; for Test D disease control rating (100 = 100% disease control, 0 = no disease control): tomato seedlings sprayed to run-off, inoculated the following day, rating relative to controls, unmarked compounds (standard test rate)
# Puccinia recondita = assay: Test B: wheat leaf rust, preventive spray on wheat seedlings; conditions: for Test B disease control rating: wheat leaf rust; for Test B disease control rating (100 = 100% disease control, 0 = no disease control): wheat seedlings sprayed to run-off, inoculated the following day, rating relative to controls, unmarked compounds (standard test rate)
# Procedure, shortened: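 Preventive test: P. recondita spores were applied one day after a run-off spray of compound suspension on wheat seedlings. Plants had 24 h at 20 °C in saturated air plus 6 days in a 20 °C growth chamber. Scoring is % disease control (100 = full) relative to controls.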
# Botrytis cinerea = assay: Test E: gray mold, preventive spray on cucumber seedlings; conditions: for Test E disease control rating: gray mold on cucumber; for Test E disease control rating (100 = 100% disease control, 0 = no disease control): cucumber seedlings sprayed to run-off, inoculated the following day, rating relative to controls, unmarked compounds (standard test rate)
# Procedure, shortened: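 Preventive spray on cucumber seedlings used a suspension (3% acetone, 250 ppm Trem 014), applied to run-off one day before inoculation with Botrytis cinerea spores. Plants were held 48 h at 20° C in saturated air, then 5 days at 20° C. Percent disease control was scored relative to untreated plants.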
# [2] = 100 = 100% disease control, 0 = no control, unmarked entries (standard test concentration)
# [3] = 100 = 100% disease control, 0 = no control relative to controls, unmarked entries (standard test concentration)
SMILES,Test C disease control rating (Pyricularia oryzae; [2]) [%],"Test A disease control rating [1, 3] [%]",Test D disease control rating (Phytophthora infestans; [2]) [%],Test B disease control rating (Puccinia recondita; [2]) [%],Test E disease control rating (Botrytis cinerea; [2]) [%],further results
CCC1(C(=O)NC(C)COc2cccc(Cl)c2)C(C)C1(Cl)Cl (mixture of isomers) [82a],–,–,–,–,–,Test C disease control rating (Pyricularia oryzae; tested at 40 ppm): 53%; Test A disease control rating ([1]; tested at 40 ppm): 0%; Test D disease control rating (Phytophthora infestans; tested at 40 ppm): 43%; Test B disease control rating (Puccinia recondita; tested at 40 ppm): 0%; Test E disease control rating (Botrytis cinerea; tested at 40 ppm): 0%
CC(COc1ccccc1Br)NC(=O)C(C#N)C(C)(C)C (mixture of isomers) [8a],85,0,0,0,7,–
CCC1(C(=O)NC(C)COc2ccc(F)cc2F)C(C)C1(Cl)Cl (stereo not drawn) [compound 106],–,–,–,–,–,Test C disease control rating (Pyricularia oryzae; tested at 40 ppm): 97%; Test A disease control rating ([1]; tested at 40 ppm): 84%; Test D disease control rating (Phytophthora infestans; tested at 40 ppm): 19%; Test B disease control rating (Puccinia recondita; tested at 40 ppm): 0%; Test E disease control rating (Botrytis cinerea; tested at 40 ppm): 0%
CCC1(C(=O)NC(C)COc2ccc(Cl)cc2F)C(C)C1(Cl)Cl (stereo not drawn) [compound 120],–,–,–,–,–,Test C disease control rating (Pyricularia oryzae; tested at 40 ppm): 52%; Test A disease control rating ([1]; tested at 40 ppm): 29%; Test D disease control rating (Phytophthora infestans; tested at 40 ppm): 19%; Test B disease control rating (Puccinia recondita; tested at 40 ppm): 0%; Test E disease control rating (Botrytis cinerea; tested at 40 ppm): 0%
"C[C@H](COc1ccc(Cl)c(F)c1)NC(=O)C(C#N)C(C)(C)C (single isomer, unassigned) [182b]",94,0,0,68,0,–
"CC(COc1cccc(F)c1)NC(=O)C(C#N)C(C)(C)C (single isomer, unassigned) [3c]",100,38,4,0,0,–
CCC1(C(=O)NC(C)COc2cccc(I)c2C#N)C(C)C1(Cl)Cl (mixture of isomers) [compound 132],0,0,2,0,0,–
C=CC(C)(CC)C(C#N)C(=O)NC(C)COc1cc(F)ccc1Cl (mixture of isomers) [compound 298],–,–,–,–,–,"Test C disease control rating (100 = 100% disease control, 0 = no disease control) (Pyricularia oryzae): 99%; Test A disease control rating (100 = 100% disease control, 0 = no disease control) [1]: 62%; Test D disease control rating (100 = 100% disease control, 0 = no disease control) (Phytophthora infestans): 99%; Test B disease control rating (100 = 100% disease control, 0 = no disease control) (Puccinia recondita): 0%; Test E disease control rating (100 = 100% disease control, 0 = no disease control) (Botrytis cinerea): 0%"
"C[C@H](COc1ccc(F)c(F)c1F)NC(=O)C(C#N)C(C)(C)C (single isomer, unassigned) [190a]",91,0,0,0,6,–
"C[C@H](COc1cc(F)ccc1F)NC(=O)C(C#N)C(C)(C)C=CF (single isomer, unassigned) [221a]",–,–,–,–,–,"Test C disease control rating (100 = 100% disease control, 0 = no disease control) (Pyricularia oryzae): 100%; Test A disease control rating (100 = 100% disease control, 0 = no disease control) [1]: 0%; Test D disease control rating (100 = 100% disease control, 0 = no disease control) (Phytophthora infestans): 41%; Test B disease control rating (100 = 100% disease control, 0 = no disease control) (Puccinia recondita): 0%; Test E disease control rating (100 = 100% disease control, 0 = no disease control) (Botrytis cinerea): 0%"
"C[C@H](COc1ccc(Br)cc1)NC(=O)C(C#N)C(C)(C)C (single isomer, unassigned) [10d]",74,77,35,0,45,–
CCC1(C(=O)NC(C)COc2ccc(C(C)(C)C)cc2)C(C)C1(Cl)Cl (stereo not drawn) [compound 241],–,–,–,–,–,"Test C disease control rating (100 = 100% disease control, 0 = no disease control) (Pyricularia oryzae): 74%; Test A disease control rating (100 = 100% disease control, 0 = no disease control) [1]: 38%; Test D disease control rating (100 = 100% disease control, 0 = no disease control) (Phytophthora infestans): 74%; Test B disease control rating (100 = 100% disease control, 0 = no disease control) (Puccinia recondita): 0%; Test E disease control rating (100 = 100% disease control, 0 = no disease control) (Botrytis cinerea): 0%"
CCC1(C(=O)NC(C)COc2c(Cl)ccc(Cl)c2Cl)C(C)C1(Cl)Cl (stereo not drawn) [compound 117],–,–,–,–,–,Test C disease control rating (Pyricularia oryzae; tested at 40 ppm): 74%; Test A disease control rating ([1]; tested at 40 ppm): 83%; Test D disease control rating (Phytophthora infestans; tested at 40 ppm): 0%; Test B disease control rating (Puccinia recondita; tested at 40 ppm): 0%; Test E disease control rating (Botrytis cinerea; tested at 40 ppm): 0%
CC(COc1ccccc1C(C)(C)C)NC(=O)C(C#N)C(C)(C)C (mixture of isomers) [compound 23],97,0,48,0,0,–
CCC(C#N)C(=O)N[C@H](C)[C@H](Oc1ccccc1C#N)c1ccccc1 (stereo partly drawn) [compound 304],–,–,–,–,–,"Test C disease control rating (100 = 100% disease control, 0 = no disease control) (Pyricularia oryzae): 97%; Test A disease control rating (100 = 100% disease control, 0 = no disease control) [1]: 0%; Test D disease control rating (100 = 100% disease control, 0 = no disease control) (Phytophthora infestans): 0%; Test B disease control rating (100 = 100% disease control, 0 = no disease control) (Puccinia recondita): 0%; Test E disease control rating (100 = 100% disease control, 0 = no disease control) (Botrytis cinerea): 0%"
CCC1(C(=O)NC(C)COc2cccc(Cl)c2C#N)C(C)C1(Cl)Cl (mixture of isomers) [compound 131],53,0,52,0,0,–
C=CC(C)(CF)C(C#N)C(=O)NC(C)COc1cc(F)ccc1Cl (mixture of isomers) [compound 220],–,–,–,–,–,"Test C disease control rating (100 = 100% disease control, 0 = no disease control) (Pyricularia oryzae): 100%; Test A disease control rating (100 = 100% disease control, 0 = no disease control) [1]: 0%; Test D disease control rating (100 = 100% disease control, 0 = no disease control) (Phytophthora infestans): 85%; Test B disease control rating (100 = 100% disease control, 0 = no disease control) (Puccinia recondita): 0%; Test E disease control rating (100 = 100% disease control, 0 = no disease control) (Botrytis cinerea): 0%"
CCC1(C(=O)NC(C)COn2c(C#N)cc(Cl)c2C)C(C)C1(Cl)Cl (mixture of isomers) [140a],90,29,0,0,0,–
CC(COc1cc(F)ccc1C#N)NC(=O)C(C#N)C(C)(C)C (mixture of isomers) [compound 41],97,62,66,0,47,–
C#CC(C)(C=C)C(C#N)C(=O)NC(C)COc1cc(F)ccc1F (mixture of isomers) [compound 301],–,–,–,–,–,"Test C disease control rating (100 = 100% disease control, 0 = no disease control) (Pyricularia oryzae): 100%; Test A disease control rating (100 = 100% disease control, 0 = no disease control) [1]: 62%; Test D disease control rating (100 = 100% disease control, 0 = no disease control) (Phytophthora infestans): 24%; Test B disease control rating (100 = 100% disease control, 0 = no disease control) (Puccinia recondita): 0%; Test E disease control rating (100 = 100% disease control, 0 = no disease control) (Botrytis cinerea): 0%"
CCC1(C(=O)NCC=Cc2ccc(F)cc2F)C(C)C1(Cl)Cl (stereo not drawn) [compound 162],74,0,95,0,82,–
"C[C@H](COc1ccc(Cl)c(Cl)c1)NC(=O)C(C#N)C(C)(C)C (single isomer, unassigned) [181a]",86,0,56,0,69,–
CCC(=CCNC(=O)C1(CC)C(C)C1(Cl)Cl)c1ccccc1 (stereo not drawn) [compound 269],–,–,–,–,–,"Test C disease control rating (100 = 100% disease control, 0 = no disease control) (Pyricularia oryzae): 94%; Test A disease control rating (100 = 100% disease control, 0 = no disease control) [1]: 98%; Test D disease control rating (100 = 100% disease control, 0 = no disease control) (Phytophthora infestans): 74%; Test B disease control rating (100 = 100% disease control, 0 = no disease control) (Puccinia recondita): 0%; Test E disease control rating (100 = 100% disease control, 0 = no disease control) (Botrytis cinerea): 0%"
CCC1(C(=O)NCCCn2cccc2)C(C)C1(Cl)Cl (stereo not drawn) [compound 145],0,0,20,9,0,–
C=CCc1cc(C)ccc1OCC(C)NC(=O)C(C#N)C(C)(C)C (mixture of isomers) [compound 185],86,0,9,28,45,–
"C[C@H](COc1cc(Cl)ccc1Cl)NC(=O)C(C#N)C(C)(C)C (single isomer, unassigned) [33a]",97,0,0,0,0,–
"C[C@H](COc1cc(Cl)cc(Cl)c1Cl)NC(=O)C(C#N)C(C)(C)C (single isomer, unassigned) [170b]",53,61,23,68,95,–
